Experimental data published in patent publication US20240207292A1, “BORONIC ACID COMPOUNDS, COMPOSITIONS AND METHODS” (Trustees of Tufts College, priority 2021, published 2024).

Experiment: Stability of 6555 with sulfur-containing and other stabilizers, 50 mM AAPH at 80° C. for 30 mins (Tables 7-9)
Type: physicochemical
Excerpt: The effect of specified sulfur-containing compounds and other stabilizer compounds (including non-sulfur-containing stabilizer compounds) and mixtures of sulfur-containing compounds and non-sulfur-containing stabilizer compounds with the boronic acid compound 6555 (structure shown above) at various pH values.

## C[C@@H](NC(=O)c1ccc(CNC(=O)CN2CCN(CC(=O)O)CCN(CC(=O)O)CCN(CC(=O)O)CC2)cc1)C(=O)N1CCC[C@H]1B(O)O [compound 6555, DOTA-aminomethyl-Bz-D-Ala-boroPro]
Ascorbate (2.5 mM) +, gentisate (1 mM) +, Sodium hydrosulfite 5.0 mM, pH 4.5, SID 90542, AAPH 80° C. 30 mins
  6555 Remain (%): 94.3%
Ascorbate (2.5 mM) +, gentisate (1 mM) +, Sodium hydrosulfite 10.0 mM, pH 4.5, SID 90532, AAPH 80° C. 30 mins
  6555 Remain (%): 94.1%
Ascorbate (2.5 mM) +, gentisate (1 mM) +, Sodium hydrosulfite 25.0 mM, pH 4.3, SID 90539, AAPH 80° C. 30 mins
  6555 Remain (%): 94.1%
Ascorbate (2.5 mM) +, gentisate (1 mM) +, Sodium hydrosulfite 40.00 mM, pH 4.0, SID 90538, AAPH 80° C. 30 mins
  6555 Remain (%): 94.6%
Ascorbate (2.5 mM) +, gentisate (1 mM) +, Sodium sulfite 2.5 mM, pH 4.5, SID 90616, AAPH 80° C. 30 mins
  6555 Remain (%): 67.9%
Ascorbate (2.5 mM) +, gentisate (1 mM) +, Sodium sulfite 5.0 mM, pH 4.6, SID 90617, AAPH 80° C. 30 mins
  6555 Remain (%): 90.3%
Ascorbate (2.5 mM) +, gentisate (1 mM) +, Sodium sulfite 10.0 mM, pH 4.8, SID 90613, AAPH 80° C. 30 mins
  6555 Remain (%): 93.8%
Ascorbate (2.5 mM) +, gentisate (1 mM) +, Sodium sulfite 25.0 mM, pH 5.1, SID 90517, AAPH 80° C. 30 mins
  6555 Remain (%): 94.1%
Ascorbate (2.5 mM) +, gentisate (1 mM) +, Stabilizer (1 mM) NAM, pH 4.6, SID 90629, AAPH 80° C. 30 mins
  6555 Remain (%): 30.8%
Ascorbate (2.5 mM) +, gentisate (1 mM) +, Stabilizer (1 mM) Sodium hydrosulfite, pH 4.5, SID 90629, AAPH 80° C. 30 mins
  6555 Remain (%): 47.4%
Ascorbate (2.5 mM) +, gentisate (1 mM) +, Stabilizer (1 mM) Sodium metabisulfite, pH 4.5, SID 90628, AAPH 80° C. 30 mins
  6555 Remain (%): 71.1%
Ascorbate (2.5 mM) +, gentisate (1 mM) +, Stabilizer (2.5 mM) Acetone sodium bisulfite, pH 4.6, SID 90523, AAPH 80° C. 30 mins
  6555 Remain (%): 94.0%
Ascorbate (2.5 mM) +, gentisate (1 mM) +, Stabilizer (2.5 mM) Acetone sodium bisulfite, pH 4.6, SID 90621, second listing, AAPH 80° C. 30 mins
  6555 Remain (%): 73.1%
Ascorbate (2.5 mM) +, gentisate (1 mM) +, Stabilizer (2.5 mM) D-mannitol, pH 4.5, SID 90641, AAPH 80° C. 30 mins
  6555 Remain (%): 15.5%
Ascorbate (2.5 mM) +, gentisate (1 mM) +, Stabilizer (2.5 mM) MSM(dimethyl sulfone), pH 4.5, SID 90598, AAPH 80° C. 30 mins
  6555 Remain (%): 8.2%
Ascorbate (2.5 mM) +, gentisate (1 mM) +, Stabilizer (2.5 mM) N-Acetyl-L-phenylalanine, pH 4.0, SID 90610, AAPH 80° C. 30 mins
  6555 Remain (%): 20.1%
Ascorbate (2.5 mM) +, gentisate (1 mM) +, Stabilizer (2.5 mM) N-Acetyl-L-tyrosine, pH 4.0, SID 90589, AAPH 80° C. 30 mins
  6555 Remain (%): 13.6%
Ascorbate (2.5 mM) +, gentisate (1 mM) +, Stabilizer (2.5 mM) NAC, pH 4.1, SID 90582, AAPH 80° C. 30 mins
  6555 Remain (%): 31.4%
Ascorbate (2.5 mM) +, gentisate (1 mM) +, Stabilizer (2.5 mM) NAM, pH 4.0, SID 90543, AAPH 80° C. 30 mins
  6555 Remain (%): 90.8%
Ascorbate (2.5 mM) +, gentisate (1 mM) +, Stabilizer (2.5 mM) NAM, pH 4.5, SID 90623, second listing, AAPH 80° C. 30 mins
  6555 Remain (%): 53.3%
Ascorbate (2.5 mM) +, gentisate (1 mM) +, Stabilizer (2.5 mM) Potassium metabisulfite, pH 4.4, SID 90622, second listing, AAPH 80° C. 30 mins
  6555 Remain (%): 93.7%
Ascorbate (2.5 mM) +, gentisate (1 mM) +, Stabilizer (2.5 mM) Potassium metabisulfite, pH 4.5, SID 90526, AAPH 80° C. 30 mins
  6555 Remain (%): 94.1%
Ascorbate (2.5 mM) +, gentisate (1 mM) +, Stabilizer (2.5 mM) Sodium L-Glutamate monohydrate, pH 4.7, SID 90604, AAPH 80° C. 30 mins
  6555 Remain (%): 8.2%
Ascorbate (2.5 mM) +, gentisate (1 mM) +, Stabilizer (2.5 mM) Sodium formaldehydesulfoxylate dihydrate, pH 4.4, SID 90527, AAPH 80° C. 30 mins
  6555 Remain (%): 91.7%
Ascorbate (2.5 mM) +, gentisate (1 mM) +, Stabilizer (2.5 mM) Sodium formaldehydesulfoxylate dihydrate, pH 4.5, SID 90620, second listing, AAPH 80° C. 30 mins
  6555 Remain (%): 58.0%
Ascorbate (2.5 mM) +, gentisate (1 mM) +, Stabilizer (2.5 mM) Sodium hydrosulfite, pH 4.3, SID 90539, AAPH 80° C. 30 mins
  6555 Remain (%): 94.1%
Ascorbate (2.5 mM) +, gentisate (1 mM) +, Stabilizer (2.5 mM) Sodium hydrosulfite, pH 4.4, SID 90537, second listing, AAPH 80° C. 30 mins
  6555 Remain (%): 91.7%
Ascorbate (2.5 mM) +, gentisate (1 mM) +, Stabilizer (2.5 mM) Sodium metabisulfite, pH 4.4, SID 90515, AAPH 80° C. 30 mins
  6555 Remain (%): 93.8%
Ascorbate (2.5 mM) +, gentisate (1 mM) +, Stabilizer (2.5 mM) Sodium metabisulfite, pH 4.5, SID 90619, second listing, AAPH 80° C. 30 mins
  6555 Remain (%): 93.4%
Ascorbate (2.5 mM) +, gentisate (1 mM) +, Stabilizer (2.5 mM) Sodium sulfite, pH 4.5, SID 90616, second listing, AAPH 80° C. 30 mins
  6555 Remain (%): 67.9%
Ascorbate (2.5 mM) +, gentisate (1 mM) +, Stabilizer (2.5 mM) Thiourea, pH 4.5, SID 90607, AAPH 80° C. 30 mins
  6555 Remain (%): 84.1%
Ascorbate (2.5 mM) +, gentisate (1 mM) +, Stabilizer none, pH 5.1, SID 90525, AAPH 80° C. 30 mins
  6555 Remain (%): 16.7%
Ascorbate none, gentisate none, Stabilizer (2.5 mM) NAM, pH 4.0, SID 90640, AAPH 80° C. 30 mins
  6555 Remain (%): 85.9%
Ascorbate none, gentisate none, Stabilizer none, pH 4.6, SID 90646, AAPH 80° C. 30 mins
  6555 Remain (%): 55.8%
mM: ascorbate 0, gentisate 0, NAM 5, metabisulfite 5, hydrosulfite 0, pH 4.3, SID 90664, 50 mM AAPH 80° C. 30 mins
  6555 Remain (%): 88.8%
mM: ascorbate 2.5, gentisate 1, NAM 2.5, metabisulfite 2.5, hydrosulfite 0, pH 4.5, SID 90637, 50 mM AAPH 80° C. 30 mins
  6555 Remain (%): 94.8%
mM: ascorbate 2.5, gentisate 1, NAM 10, metabisulfite 2.5, hydrosulfite 0, pH 4.0, SID 90638, 50 mM AAPH 80° C. 30 mins
  6555 Remain (%): 93.2%
mM: ascorbate 2.5, gentisate 1, NAM 25, metabisulfite 2.5, hydrosulfite 0, pH 4.0, SID 90631, 50 mM AAPH 80° C. 30 mins
  6555 Remain (%): 92.2%
mM: ascorbate 5, gentisate 2, NAM 0, metabisulfite 5, hydrosulfite 0, pH 4.5, SID 90643, 50 mM AAPH 80° C. 30 mins
  6555 Remain (%): 95.6%
mM: ascorbate 5, gentisate 2, NAM 0, metabisulfite 5, hydrosulfite 5, pH 4.4, SID 90686, 50 mM AAPH 80° C. 30 mins
  6555 Remain (%): 95.3%
mM: ascorbate 5, gentisate 2, NAM 5, metabisulfite 0, hydrosulfite 0, pH 4.5, SID 90642, 50 mM AAPH 80° C. 30 mins
  6555 Remain (%): 66.5%
mM: ascorbate 5, gentisate 2, NAM 5, metabisulfite 0, hydrosulfite 5, pH 4.5, SID 90701, 50 mM AAPH 80° C. 30 mins
  6555 Remain (%): 95.7%
mM: ascorbate 5, gentisate 2, NAM 5, metabisulfite 5, hydrosulfite 0, pH 4.5, SID 90639, 50 mM AAPH 80° C. 30 mins
  6555 Remain (%): 95.8%
mM: first column (ascorbate) 2.5, gentisate 1, NAM 0, metabisulfite 2.5, hydrosulfite 0, pH 4.5, SID 90619, 50 mM AAPH 80° C. 30 mins
  6555 Remain (%): 93.4%
